{"source": "patent US8802895B2", "about": "“Amide derivatives of benzene-sulfonanilide, pharmaceutical composition thereof and method for cancer treatment using the same” (Cleveland State University, priority 2010, dated 2014)", "assay_type_in_all_cases": "cell-based", "key": {"MOLT-4": {"test_system": "MOLT-4", "test": "NCIDTP 60 cancer cell lines screening, Leukemia panel"}, "HCT-15": {"test_system": "HCT-15", "test": "NCIDTP 60 cancer cell lines screening, Colon Cancer panel"}, "HOP-62": {"test_system": "HOP-62", "test": "NCIDTP 60 cancer cell lines screening, Non-Small Cell Lung Cancer panel"}, "786-0": {"test_system": "786-0", "test": "NCIDTP 60 cancer cell lines screening, Renal Cancer panel"}, "SF-295": {"test_system": "SF-295", "test": "NCIDTP 60 cancer cell lines screening, CNS Cancer panel"}, "EKVX": {"test_system": "EKVX", "test": "NCIDTP 60 cancer cell lines screening, Non-Small Cell Lung Cancer panel"}, "SK-MEL-28": {"test_system": "SK-MEL-28", "test": "NCIDTP 60 cancer cell lines screening, Melanoma panel"}, "NCI/ADR-RES": {"test_system": "NCI/ADR-RES", "test": "NCIDTP 60 cancer cell lines screening, Ovarian Cancer panel"}, "OVCAR-5": {"test_system": "OVCAR-5", "test": "NCIDTP 60 cancer cell lines screening, Ovarian Cancer panel"}, "SK-MEL-5": {"test_system": "SK-MEL-5", "test": "NCIDTP 60 cancer cell lines screening, Melanoma panel"}}}
{"smiles": "Cc1ccc(C)c(COc2cc(NC(=O)c3ccc4c(c3)OCO4)ccc2N(C)S(C)(=O)=O)c1", "note": "[Compound #10, Benzo[1,3]dioxole-5-carboxylic acid [3-(2,5-dimethyl-benzyloxy)-4-(methanesulfonyl-methyl-amino)-phenyl]-amide]", "values": [{"measurement": "GI50", "setting": "MOLT-4; Homo sapiens, MOLT-4", "result": 163, "unit": "nM"}, {"measurement": "CC50", "setting": "MOLT-4; Homo sapiens, MOLT-4, read-out: LC50", "result": "> 100000", "unit": "nM"}, {"measurement": "TGI", "setting": "MOLT-4; MOLT-4", "result": ">1.00E−4", "unit": "Molar"}, {"measurement": "Percent Growth", "setting": "MOLT-4; MOLT-4, Log10 Concentration −4.0 Molar", "result": 13, "unit": "%"}, {"measurement": "Percent Growth", "setting": "MOLT-4; MOLT-4, Log10 Concentration −5.0 Molar", "result": 7, "unit": "%"}, {"measurement": "Percent Growth", "setting": "MOLT-4; MOLT-4, Log10 Concentration −6.0 Molar", "result": 12, "unit": "%"}, {"measurement": "Percent Growth", "setting": "MOLT-4; MOLT-4, Log10 Concentration −7.0 Molar", "result": 80, "unit": "%"}, {"measurement": "Percent Growth", "setting": "MOLT-4; MOLT-4, Log10 Concentration −8.0 Molar", "result": 99, "unit": "%"}, {"measurement": "TGI", "setting": "HCT-15; HCT-15", "result": ">1.00E−4", "unit": "Molar"}, {"measurement": "Percent Growth", "setting": "HCT-15; HCT-15, Log10 Concentration −4.0 Molar", "result": 17, "unit": "%"}, {"measurement": "Percent Growth", "setting": "HCT-15; HCT-15, Log10 Concentration −5.0 Molar", "result": 17, "unit": "%"}, {"measurement": "Percent Growth", "setting": "HCT-15; HCT-15, Log10 Concentration −6.0 Molar", "result": 22, "unit": "%"}, {"measurement": "Percent Growth", "setting": "HCT-15; HCT-15, Log10 Concentration −7.0 Molar", "result": 74, "unit": "%"}, {"measurement": "Percent Growth", "setting": "HCT-15; HCT-15, Log10 Concentration −8.0 Molar", "result": 96, "unit": "%"}, {"measurement": "GI50", "setting": "HCT-15; Homo sapiens, HCT-15", "result": 289, "unit": "nM"}, {"measurement": "CC50", "setting": "HCT-15; Homo sapiens, HCT-15, read-out: LC50", "result": "> 100000", "unit": "nM"}, {"measurement": "TGI", "setting": "HOP-62; HOP-62", "result": ">1.00E−4", "unit": "Molar"}, {"measurement": "Percent Growth", "setting": "HOP-62; HOP-62, Log10 Concentration −4.0 Molar", "result": 19, "unit": "%"}, {"measurement": "Percent Growth", "setting": "HOP-62; HOP-62, Log10 Concentration −5.0 Molar", "result": 18, "unit": "%"}, {"measurement": "Percent Growth", "setting": "HOP-62; HOP-62, Log10 Concentration −6.0 Molar", "result": 18, "unit": "%"}, {"measurement": "Percent Growth", "setting": "HOP-62; HOP-62, Log10 Concentration −7.0 Molar", "result": 84, "unit": "%"}, {"measurement": "Percent Growth", "setting": "HOP-62; HOP-62, Log10 Concentration −8.0 Molar", "result": 102, "unit": "%"}, {"measurement": "GI50", "setting": "HOP-62; Homo sapiens, HOP-62", "result": 329, "unit": "nM"}, {"measurement": "CC50", "setting": "HOP-62; Homo sapiens, HOP-62, read-out: LC50", "result": "> 100000", "unit": "nM"}, {"measurement": "TGI", "setting": "786-0; 786-0", "result": "1.11E−6", "unit": "Molar"}, {"measurement": "Percent Growth", "setting": "786-0; 786-0, Log10 Concentration −4.0 Molar", "result": "−14", "unit": "%"}, {"measurement": "Percent Growth", "setting": "786-0; 786-0, Log10 Concentration −5.0 Molar", "result": "−22", "unit": "%"}, {"measurement": "Percent Growth", "setting": "786-0; 786-0, Log10 Concentration −6.0 Molar", "result": 1, "unit": "%"}, {"measurement": "Percent Growth", "setting": "786-0; 786-0, Log10 Concentration −7.0 Molar", "result": 69, "unit": "%"}, {"measurement": "Percent Growth", "setting": "786-0; 786-0, Log10 Concentration −8.0 Molar", "result": 91, "unit": "%"}, {"measurement": "GI50", "setting": "786-0; Homo sapiens, 786-0", "result": 191, "unit": "nM"}, {"measurement": "CC50", "setting": "786-0; Homo sapiens, 786-0, read-out: LC50", "result": "> 100000", "unit": "nM"}, {"measurement": "GI50", "setting": "SF-295; Homo sapiens, SF-295", "result": 98.3, "unit": "nM"}, {"measurement": "CC50", "setting": "SF-295; Homo sapiens, SF-295, read-out: LC50", "result": "> 100000", "unit": "nM"}, {"measurement": "TGI", "setting": "SF-295; SF-295", "result": "6.26E−7", "unit": "Molar"}, {"measurement": "Percent Growth", "setting": "SF-295; SF-295, Log10 Concentration −4.0 Molar", "result": "−15", "unit": "%"}, {"measurement": "Percent Growth", "setting": "SF-295; SF-295, Log10 Concentration −5.0 Molar", "result": "−16", "unit": "%"}, {"measurement": "Percent Growth", "setting": "SF-295; SF-295, Log10 Concentration −6.0 Molar", "result": "−13", "unit": "%"}, {"measurement": "Percent Growth", "setting": "SF-295; SF-295, Log10 Concentration −7.0 Molar", "result": 50, "unit": "%"}, {"measurement": "Percent Growth", "setting": "SF-295; SF-295, Log10 Concentration −8.0 Molar", "result": 92, "unit": "%"}, {"measurement": "TGI", "setting": "EKVX", "result": ">1.00E−4", "unit": "Molar"}, {"measurement": "GI50", "setting": "EKVX; Homo sapiens", "result": 598, "unit": "nM"}, {"measurement": "CC50", "setting": "EKVX; Homo sapiens, read-out: LC50", "result": "> 100000", "unit": "nM"}, {"measurement": "Percent Growth", "setting": "EKVX; Log10 Concentration −4.0 Molar", "result": 33, "unit": "%"}, {"measurement": "Percent Growth", "setting": "EKVX; Log10 Concentration −5.0 Molar", "result": 25, "unit": "%"}, {"measurement": "Percent Growth", "setting": "EKVX; Log10 Concentration −6.0 Molar", "result": 39, "unit": "%"}, {"measurement": "Percent Growth", "setting": "EKVX; Log10 Concentration −7.0 Molar", "result": 88, "unit": "%"}, {"measurement": "Percent Growth", "setting": "EKVX; Log10 Concentration −8.0 Molar", "result": 94, "unit": "%"}, {"measurement": "GI50", "setting": "SK-MEL-28; Homo sapiens, SK-MEL-28", "result": 692, "unit": "nM"}, {"measurement": "CC50", "setting": "SK-MEL-28; Homo sapiens, SK-MEL-28, read-out: LC50", "result": "> 100000", "unit": "nM"}, {"measurement": "TGI", "setting": "SK-MEL-28; SK-MEL-28", "result": ">1.00E−4", "unit": "Molar"}, {"measurement": "Percent Growth", "setting": "SK-MEL-28; SK-MEL-28, Log10 Concentration −4.0 Molar", "result": 50, "unit": "%"}, {"measurement": "Percent Growth", "setting": "SK-MEL-28; SK-MEL-28, Log10 Concentration −5.0 Molar", "result": 49, "unit": "%"}, {"measurement": "Percent Growth", "setting": "SK-MEL-28; SK-MEL-28, Log10 Concentration −6.0 Molar", "result": 44, "unit": "%"}, {"measurement": "Percent Growth", "setting": "SK-MEL-28; SK-MEL-28, Log10 Concentration −7.0 Molar", "result": 83, "unit": "%"}, {"measurement": "Percent Growth", "setting": "SK-MEL-28; SK-MEL-28, Log10 Concentration −8.0 Molar", "result": 91, "unit": "%"}, {"measurement": "TGI", "setting": "NCI/ADR-RES", "result": "4.07E−7", "unit": "Molar"}, {"measurement": "GI50", "setting": "NCI/ADR-RES; Homo sapiens", "result": 56.2, "unit": "nM"}, {"measurement": "CC50", "setting": "NCI/ADR-RES; Homo sapiens, read-out: LC50", "result": "> 100000", "unit": "nM"}, {"measurement": "Percent Growth", "setting": "NCI/ADR-RES; Log10 Concentration −4.0 Molar", "result": "−20", "unit": "%"}, {"measurement": "Percent Growth", "setting": "NCI/ADR-RES; Log10 Concentration −5.0 Molar", "result": "−12", "unit": "%"}, {"measurement": "Percent Growth", "setting": "NCI/ADR-RES; Log10 Concentration −6.0 Molar", "result": "−22", "unit": "%"}, {"measurement": "Percent Growth", "setting": "NCI/ADR-RES; Log10 Concentration −7.0 Molar", "result": 34, "unit": "%"}, {"measurement": "Percent Growth", "setting": "NCI/ADR-RES; Log10 Concentration −8.0 Molar", "result": 98, "unit": "%"}, {"measurement": "GI50", "setting": "OVCAR-5; Homo sapiens, OVCAR-5", "result": 538, "unit": "nM"}, {"measurement": "CC50", "setting": "OVCAR-5; Homo sapiens, OVCAR-5, read-out: LC50", "result": "> 100000", "unit": "nM"}, {"measurement": "TGI", "setting": "OVCAR-5; OVCAR-5", "result": ">1.00E−4", "unit": "Molar"}, {"measurement": "Percent Growth", "setting": "OVCAR-5; OVCAR-5, Log10 Concentration −4.0 Molar", "result": 25, "unit": "%"}, {"measurement": "Percent Growth", "setting": "OVCAR-5; OVCAR-5, Log10 Concentration −5.0 Molar", "result": 33, "unit": "%"}, {"measurement": "Percent Growth", "setting": "OVCAR-5; OVCAR-5, Log10 Concentration −6.0 Molar", "result": 37, "unit": "%"}, {"measurement": "Percent Growth", "setting": "OVCAR-5; OVCAR-5, Log10 Concentration −7.0 Molar", "result": 85, "unit": "%"}, {"measurement": "Percent Growth", "setting": "OVCAR-5; OVCAR-5, Log10 Concentration −8.0 Molar", "result": 85, "unit": "%"}, {"measurement": "GI50", "setting": "SK-MEL-5; Homo sapiens, SK-MEL-5", "result": 253, "unit": "nM"}, {"measurement": "CC50", "setting": "SK-MEL-5; Homo sapiens, SK-MEL-5, read-out: LC50", "result": 34100, "unit": "nM"}, {"measurement": "TGI", "setting": "SK-MEL-5; SK-MEL-5", "result": "1.65E−6", "unit": "Molar"}, {"measurement": "Percent Growth", "setting": "SK-MEL-5; SK-MEL-5, Log10 Concentration −4.0 Molar", "result": "−57", "unit": "%"}, {"measurement": "Percent Growth", "setting": "SK-MEL-5; SK-MEL-5, Log10 Concentration −5.0 Molar", "result": "−42", "unit": "%"}, {"measurement": "Percent Growth", "setting": "SK-MEL-5; SK-MEL-5, Log10 Concentration −6.0 Molar", "result": 12, "unit": "%"}, {"measurement": "Percent Growth", "setting": "SK-MEL-5; SK-MEL-5, Log10 Concentration −7.0 Molar", "result": 76, "unit": "%"}, {"measurement": "Percent Growth", "setting": "SK-MEL-5; SK-MEL-5, Log10 Concentration −8.0 Molar", "result": 90, "unit": "%"}]}
